Test results taken from ChEMBL document CHEMBL3244164, “Synthesis and analgesic activity of 1,3-dihydro-3-(substituted phenyl)imidazo[4,5-b]pyridin-2-ones and 3-(substituted phenyl)-1,2,3-triazolo[4,5-b]pyridines” (J Med Chem, 1978).

What was measured:
[1] = test system: Rattus norvegicus; assay: Analgesic activity in Sprague-Dawley rat brewer's yeast treated foot assessed as response threshold at 32 mg/kg, po; format: functional
[2] = test system: Rattus norvegicus; assay: Analgesic activity in Sprague-Dawley rat normal foot assessed as response threshold at 32 mg/kg, po; format: functional

| SMILES | Activity [1] [mm] | Activity [2] [mm] |
| --- | --- | --- |
| O=c1n(C/C=C/c2ccccc2)c2cccnc2n1-c1ccc2c(c1)OCO2 | <25 | <40 |
| NC(=O)c1ccccc1-n1nnc2cccnc21 | 25 | <40 |
| CCOCn1c(=O)n(-c2ccc3c(c2)OCO3)c2ncccc21 | <25 | <40 |
| C=CCn1c(=O)n(-c2ccc3c(c2)COCO3)c2ncccc21 | <25 | <40 |
| c1ccc(-c2nc3cccnc3n2-c2ccc3c(c2)OCO3)cc1 | <25 | <40 |
| FC(F)(F)c1cccc(-n2nnc3cccnc32)c1 | 25 | <40 |
| Oc1ccccc1-n1nnc2cccnc21 | <25 | <40 |
| C=CCn1c(=O)n(-c2cccc(C(=O)OCC)c2)c2ncccc21 | <25 | <40 |
| O=C(O)c1cnc2c(c1)[nH]c(=O)n2-c1ccccc1F | <25 | <40 |
| COC(=O)c1cnc2c(c1)[nH]c(=O)n2-c1ccc2c(c1)OCO2 | <25 | <40 |
| Cc1cc2c(cc1-n1c(=O)[nH]c3cccnc31)OCO2 | <25 | <40 |
| CC(C)CCn1c(=O)n(-c2ccc3c(c2)OCO3)c2ncccc21 | <25 | <40 |
| COc1ccc(-n2nnc3cccnc32)cc1 | <25 | <40 |
| COc1ccc(OC)c(-n2c(=O)[nH]c3cccnc32)c1 | <25 | <40 |
| CCCCCCn1c(=O)n(-c2ccc3c(c2)OCO3)c2ncccc21 | 25 | <40 |
| CC(=O)Nc1ccc(-n2nnc3cccnc32)cc1 | <25 | <40 |
| O=c1[nH]c2ccccc2n1-c1ccc2c(c1)OCO2 | <25 | <40 |
| CSCn1c(=O)n(-c2ccccc2)c2ncccc21 | 25 | <40 |

| SMILES | Activity [1] [mm] | Activity [2] [mm] |
| --- | --- | --- |
| CC(=O)OCn1c(=O)n(-c2ccc3c(c2)OCO3)c2ncccc21 | <25 | <40 |
| COc1cc(-n2c(=O)[nH]c3cccnc32)cc(OC)c1OC | <25 | <40 |
| COc1ccc(OC)c(-n2nnc3cccnc32)c1 | <25 | <40 |
| Cc1oc2ccc(-n3c(=O)[nH]c4cccnc43)cc2c1C | <25 | <40 |
| Cc1cc2c(cc1-n1nnc3cccnc31)OCO2 | <25 | <40 |
| COc1cc(-n2c(=O)[nH]c3cccnc32)ccc1C | <25 | <40 |
| COc1ccccc1-n1nnc2cccnc21 | 25 | <40 |
| CCC(C)n1c(=O)n(-c2ccc3c(c2)OCO3)c2ncccc21 (stereo not given) | <25 | <40 |
| O=c1[nH]c2cccnc2n1-c1ccc(Cl)cc1 | <25 | <40 |
| O=C(O)c1ccc(-n2nnc3cccnc32)cc1 | <25 | <40 |
| CC(=O)n1c(=O)n(-c2ccc3c(c2)OCO3)c2ncccc21 | 25 | 40 |
| O=c1[nH]c2cccnc2n1-c1cc(F)ccc1F | <25 | <40 |
| O=c1[nH]c2cncnc2n1-c1ccccc1F | <25 | <40 |
| c1cnc2c(c1)nnn2-c1ccc2c(c1)CCC2 | <25 | <40 |
| O=c1[nH]c2cccnc2n1C1CCCCC1 | <25 | <40 |
| C=CCn1c(=O)n(-c2cccc(C)n2)c2ncccc21 | <25 | <40 |
| COc1ccc(-n2c(=O)[nH]c3cccnc32)c(OC)c1 | <25 | <40 |
